Assay results: patent US4898868A, “3-demethyl-4-fluoromevalonic acid derivatives, a process for the preparation thereof, pharmaceutical products based on these compounds, the use thereof, and intermediates” (Hoechst Aktiengesellschaft, priority 1987, dated 1990)

Legend:
[1] = molecular target: T1, HMG-CoA reductase (Rattus norvegicus, UniProt P51639); experiment: inhibition of HMG-CoA reductase activity on solubilized enzyme preparations from rat liver microsomes; format: biochemical; conditions: solubilized rat liver microsomal enzyme; mean of 3 parallel samples; optically pure compounds
T1 sequence (P51639 1-887): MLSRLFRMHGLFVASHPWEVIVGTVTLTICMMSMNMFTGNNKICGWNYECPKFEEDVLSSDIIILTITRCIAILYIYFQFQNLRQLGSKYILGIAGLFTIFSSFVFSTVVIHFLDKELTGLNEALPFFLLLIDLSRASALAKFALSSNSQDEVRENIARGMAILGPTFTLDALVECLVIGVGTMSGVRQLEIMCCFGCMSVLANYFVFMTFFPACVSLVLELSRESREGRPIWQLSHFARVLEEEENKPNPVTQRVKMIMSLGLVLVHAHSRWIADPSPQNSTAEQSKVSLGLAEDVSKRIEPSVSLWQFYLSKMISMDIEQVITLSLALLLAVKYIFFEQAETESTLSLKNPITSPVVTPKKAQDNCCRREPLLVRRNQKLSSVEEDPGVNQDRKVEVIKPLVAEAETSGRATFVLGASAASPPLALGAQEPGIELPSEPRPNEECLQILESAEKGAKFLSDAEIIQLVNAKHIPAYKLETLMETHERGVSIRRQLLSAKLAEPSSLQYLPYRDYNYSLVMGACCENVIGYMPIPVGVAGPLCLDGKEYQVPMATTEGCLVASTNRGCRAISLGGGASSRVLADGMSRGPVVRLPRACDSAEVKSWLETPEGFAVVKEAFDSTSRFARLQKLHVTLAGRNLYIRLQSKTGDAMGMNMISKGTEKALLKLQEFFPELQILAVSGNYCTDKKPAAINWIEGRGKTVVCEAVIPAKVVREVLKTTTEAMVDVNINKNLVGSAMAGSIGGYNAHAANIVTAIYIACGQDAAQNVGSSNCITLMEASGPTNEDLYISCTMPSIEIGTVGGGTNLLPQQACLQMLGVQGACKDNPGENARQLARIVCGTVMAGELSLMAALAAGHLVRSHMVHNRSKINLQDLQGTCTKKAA

[2] = system: cholesterol biosynthesis in HEP G2 cells; experiment: inhibition of cholesterol biosynthesis in HEP G2 cell cultures by incorporation of 14C-precursor (14C-acetate) in cholesterol; format: cell-based; conditions: Homo sapiens, HepG2, 1 hour preincubation, 3 hours with 14C-acetate
Description: In addition, the inhibition of cholesterol biosynthesis in cell cultures was tested with selected compounds by the incorporation of ^14 C-precursor in cholesterol.
Monolayers of HEP G2 cells in Lipoprotein-free nutrient medium were incubated with various concentrations of the test substances for 1 hour. After addition of the ^14 C-labeled precursor sodium ^14 C-acetate, the incubation was continued for 3 hours. Then ^3 H-cholesterol was added as internal standard, and some of the cells were hydrolyzed with alkali. The lipids were extracted from the hydrolyzed cells using chloroform/methanol. Carrier cholesterol was added to this lipid mixture which was then subjected to preparative thin-layer chromatography, the cholesterol band was visualized with iodine vapor and then isolated, and the amount of ^14 C-cholesterol formed from the ^14 C-precursor was determined by scintigraphy. Cellular protein was determined in an aliquot of the cells, so that it is possible to calculate the amount of ^14 C-cholesterol formed from the ^14 C-precursor per mg of cellular protein in unit time. The solvent control is used for comparison with the inhibitory effect of an added test product, so that the inhibition of cholesterol biosynthesis at a particular molar concentration of the test product in the medium can be stated. The absence of cell damage due to the action of the products was confirmed in an aliquot of the cell culture by the morphology (light microscope). The IC50 values of the test products are stated in mol/l (in Table II), and their relative potencies are compared with mevinolin sodium salt and mevinolin lactone (comparison of the IC50 values).

[3] = system: liver enzyme levels; experiment: liver enzyme levels in the rabbit test; format: in vivo; conditions: 10 mg/kg/day by gavage; rabbits
Description: (§1) The cholesterol-lowering efficacy was investigated in the following test on rabbits Normolipidemic male New Zealand rabbits (weight 3-3.5 kg, 4-6 animals per test group) received the test compounds suspended in a 1% strength aqueous carboxymethylcellulose solution (®Tylose) by gavage each day in the morning; the control group received only Tylose solution. Venous blood was taken every 3 to 4 days 20 hours after the oral administration of the solutions. The total cholesterol content in these samples was determined enzymatically using the Boehringer Mannheim assay kit (CHOD-PAP-high performance method). The serum cholesterol level in the group treated with test compounds was compared with that in the control group. The treatment period was followed by a period in which the test compounds were no longer administered.
The serum cholesterol levels returned to their initial value within 3 days after discontinuation of the product (after 10 days).

[4] = system: total serum cholesterol; experiment: cholesterol-lowering efficacy in normolipidemic male New Zealand rabbits; format: in vivo, rabbit
Description: as §1

[5] = system: HMG-CoA reductase; conditions: Endo et al. 1976; Brown et al. 1976; cited from earlier work

Structure (SMILES)	IC50 [1]	IC50 [2]	also measured
Cc1cc(C)c(/C=C/[C@@H](O)[C@H](F)[C@@H](O)CC(=O)O)c(-c2ccc(F)cc2)c1	98 nM		
O=C1C[C@H](O)[C@@H](F)[C@@H](CSc2c(Cl)cc(Cl)cc2C(c2ccc(F)cc2)c2ccc(F)cc2)O1 [Example 12, 6-(2,4-Dichloro-6-(bisparafluorophenylmethyl)phenylthio)-3(R),5(S)-dihydroxy-4(R)-fluorohexanoic acid lactone]	2000 nM	5500 nM	
CC(C)c1nc(-c2ccccc2)cc(-c2ccc(F)cc2)c1/C=C/[C@@H](O)[C@H](F)[C@@H](O)CC(=O)O	8.5 nM		
CCCCc1cc(Cl)cc(Cl)c1/C=C/[C@H]1OC(=O)C[C@H](O)[C@H]1F [Example 18, 7-(2-n-Butyl-4,6-dichlorophenyl)-3(S),5(R)-dihydroxy-4(R)-fluoro-E-hept-6-enoic acid lactone]	32 nM	320 nM	
CC(C)c1nc(-c2ccccc2)cc(-c2ccc(F)cc2)c1/C=C/[C@H]1OC(=O)C[C@H](O)[C@H]1F [Example 34, 3(S),5(R)-Dihydorxy-4(R)-fluoro-7-(2-isopropyl-4-parafluorophenyl-6-phenyl-3-pyridyl)hept-6E-enoic acid lactone]		110 nM	changes in the liver enzyme levels [3]: without eliciting abnormal or pathological changes in the liver enzyme levels; time within which the 40% lowering of total cholesterol was reached ([4]; 10 mg/kg/day by gavage): ≤ 3 days; lowering of total cholesterol ([4]; 10 mg/kg/day by gavage in 1% carboxymethylcellulose, within 3 days, vs control group): 40%; course of total cholesterol lowering during administration ([4]; 10 mg/kg/day by gavage, 10 days): remained constant throughout the administration; time for serum cholesterol levels to return to initial value after discontinuation ([4]; 10 mg/kg/day by gavage, discontinuation after 10 days): ≤ 3 days
CC[C@H](C)C(=O)O[C@H]1CCC=C2C=C[C@H](C)[C@H](CC[C@@H]3C[C@@H](O)CC(=O)O3)[C@H]21 [compactin]			inhibition of HMG-CoA reductase (in words) [5]: potent competitive inhibitor of HMG-CoA reductase
CC(C)c1nc(-c2ccccc2)nc(-c2ccc(F)cc2)c1/C=C/[C@H]1OC(=O)C[C@H](O)[C@H]1F [Example 38, 3(S),5(R)-dihydroxy-4(R)-fluoro-7-[6-parafluorophenyl-4-isopropyl-2-phenyl-1,3-diazin-5-yl]hept-6E-enoic acid lactone]		250 nM	

Continued, in another order:

IC50 [1]	Structure (SMILES)	IC50 [2]	also measured
20 nM	CC(C)c1nc(-c2ccccc2)cc(-c2ccc(F)cc2)c1CC[C@@H](O)[C@@H](F)[C@@H](O)CC(=O)O		
36 nM	CC(C)c1nc(-c2ccccc2)nc(-c2ccc(F)cc2)c1/C=C/[C@@H](O)[C@H](F)[C@@H](O)CC(=O)O		
6.3 nM	CC(C)c1cc(-c2ccccc2)cc(-c2ccc(F)cc2)c1/C=C/[C@@H](O)[C@H](F)[C@@H](O)CC(=O)O		
